{"source": "PubChem BioAssay AID1626", "about": "(SRMLSC, 2009)", "tested_on": "M. tuberculosis H37Rv growth inhibition", "experiment": "M. tuberculosis H37Rv growth inhibitors, H37Rv strain (AID 1626)", "conditions": "for IC90: measured here: IC90 against H37Rv; for CC50: measured here: Vero cell cytotoxicity", "data": [{"smiles": "COc1ccc(-c2nnc(NC(=O)c3ccccc3C)o2)cc1", "values": [{"measurement": "IC50", "value": 0.944, "unit": "µM"}, {"measurement": "IC90", "value": "> 100", "unit": "µM"}, {"measurement": "CC50", "value": "> 40", "unit": "µM"}]}, {"smiles": "CC1CC(C)CN(C(=O)/C=C/c2ccc([N+](=O)[O-])s2)C1", "note": "(stereo unspecified)", "values": [{"measurement": "IC50", "value": 10.2, "unit": "µM"}, {"measurement": "IC90", "value": 13.3, "unit": "µM"}, {"measurement": "CC50", "value": 37.4, "unit": "µM"}]}, {"smiles": "COc1ccc(NC(=O)CCc2nc(-c3ccc(C)cc3)no2)cc1Cl", "values": [{"measurement": "IC50", "value": 3.59, "unit": "µM"}, {"measurement": "IC90", "value": "> 100", "unit": "µM"}, {"measurement": "CC50", "value": "> 40", "unit": "µM"}]}, {"smiles": "CCN(CC)CCN1c2ccccc2Sc2ccc3ccccc3c21", "values": [{"measurement": "IC50", "value": 10.4, "unit": "µM"}, {"measurement": "IC90", "value": 18.9, "unit": "µM"}, {"measurement": "CC50", "value": "> 40", "unit": "µM"}]}, {"smiles": "COc1cccc2c1C(=O)c1c(O)c3c(c(O)c1C2=O)C[C@@](O)(C(=O)CO)C[C@@H]3O[C@H]1C[C@H](N)[C@@H](O)[C@H](C)O1", "values": [{"measurement": "IC50", "value": 14.9, "unit": "µM"}, {"measurement": "IC90", "value": 26.4, "unit": "µM"}, {"measurement": "CC50", "value": 7.47, "unit": "µM"}]}, {"smiles": "O=C(CN1CCN(CC(=O)Nc2ccc(OCc3ccccc3)cc2)CC1)Nc1ccc(F)cc1", "values": [{"measurement": "IC50", "value": 34.5, "unit": "µM"}, {"measurement": "IC90", "value": "> 100", "unit": "µM"}]}, {"smiles": "CCOC(=O)N1CCN(C(=O)CSc2nnc(COc3ccccc3)o2)CC1", "values": [{"measurement": "IC50", "value": 24.7, "unit": "µM"}, {"measurement": "IC90", "value": 40, "unit": "µM"}]}, {"smiles": "CCOC(=O)CSc1ncnc2c1cnn2-c1ccccc1", "values": [{"measurement": "IC50", "value": 1.37, "unit": "µM"}, {"measurement": "IC90", "value": 14.6, "unit": "µM"}]}, {"smiles": "O=C(O)c1[nH]c(=O)[nH]c(=O)c1F", "values": [{"measurement": "IC50", "value": 6.62, "unit": "µM"}, {"measurement": "IC90", "value": 18.4, "unit": "µM"}, {"measurement": "CC50", "value": "> 40", "unit": "µM"}]}, {"smiles": "O=[N+]([O-])c1cc(/C=N/N/C(=N/c2ccccn2)c2ccccn2)ccc1O", "values": [{"measurement": "IC50", "value": 17.9, "unit": "µM"}, {"measurement": "IC90", "value": "> 100", "unit": "µM"}, {"measurement": "CC50", "value": 26.8, "unit": "µM"}]}, {"smiles": "Cc1cc(Nc2ccccc2)nc(NCc2ccccc2)n1", "values": [{"measurement": "IC50", "value": 10.9, "unit": "µM"}, {"measurement": "IC90", "value": 14.4, "unit": "µM"}, {"measurement": "CC50", "value": 23.3, "unit": "µM"}]}, {"smiles": "COc1ccc(N=CC2=C(O)CCCC2=O)cc1", "values": [{"measurement": "IC50", "value": 45, "unit": "µM"}, {"measurement": "IC90", "value": "> 100", "unit": "µM"}]}, {"smiles": "CCn1c(/C=C/c2ccc([N+](=O)[O-])o2)nc2ccccc2c1=O", "values": [{"measurement": "IC50", "value": "< 0.195", "unit": "µM"}, {"measurement": "IC90", "value": 0.383, "unit": "µM"}, {"measurement": "CC50", "value": 15.6, "unit": "µM"}]}, {"smiles": "Clc1ccc(COC(Cn2ccnc2)c2ccc(Cl)cc2Cl)c(Cl)c1", "note": "(stereo unspecified)", "values": [{"measurement": "IC50", "value": 2.85, "unit": "µM"}, {"measurement": "IC90", "value": 3.27, "unit": "µM"}, {"measurement": "CC50", "value": 36.8, "unit": "µM"}]}, {"smiles": "Cc1ccc2c(c1)Cc1nc3ccccc3nc1-2", "values": [{"measurement": "IC50", "value": 83.5, "unit": "µM"}, {"measurement": "IC90", "value": "> 100", "unit": "µM"}, {"measurement": "CC50", "value": "> 40", "unit": "µM"}]}, {"smiles": "FC(F)(F)c1cccc(Sc2nc(-c3ccccc3)nnc2C(F)(F)F)c1", "values": [{"measurement": "IC50", "value": 7.32, "unit": "µM"}, {"measurement": "IC90", "value": "> 100", "unit": "µM"}, {"measurement": "CC50", "value": "> 40", "unit": "µM"}]}, {"smiles": "CN(C)CCCn1c(=O)n(CCc2ccccc2)c(=O)c2c3c(sc21)CCCCC3", "values": [{"measurement": "IC50", "value": 11.6, "unit": "µM"}, {"measurement": "IC90", "value": 12.9, "unit": "µM"}, {"measurement": "CC50", "value": 18.1, "unit": "µM"}]}, {"smiles": "O=C(/C=C/c1cccc2ccccc12)c1ccncc1", "values": [{"measurement": "IC50", "value": 8.2, "unit": "µM"}, {"measurement": "IC90", "value": 12.7, "unit": "µM"}, {"measurement": "CC50", "value": "> 40", "unit": "µM"}]}, {"smiles": "COC(=O)CSc1ccnc2cc(Cl)ccc12", "values": [{"measurement": "IC50", "value": 4.25, "unit": "µM"}, {"measurement": "IC90", "value": 12.3, "unit": "µM"}]}, {"smiles": "CCn1cc(C(=O)O)c(=O)c2cc(F)c(N3CCNCC3)cc21", "values": [{"measurement": "IC50", "value": 2.85, "unit": "µM"}, {"measurement": "IC90", "value": 3.11, "unit": "µM"}]}, {"smiles": "CCCCOc1ccc(NC(=O)c2cnc(C)cn2)cc1", "values": [{"measurement": "IC50", "value": 22.1, "unit": "µM"}, {"measurement": "IC90", "value": "> 100", "unit": "µM"}, {"measurement": "CC50", "value": "> 40", "unit": "µM"}]}, {"smiles": "Cc1ccc(C)c(N=Nc2nc3ccccc3n2C)c1", "values": [{"measurement": "IC50", "value": 1.33, "unit": "µM"}, {"measurement": "IC90", "value": 1.7, "unit": "µM"}, {"measurement": "CC50", "value": "> 40", "unit": "µM"}]}, {"smiles": "Cc1cc(C(=O)Cn2cncn2)c(C)n1CCc1ccc(F)cc1", "values": [{"measurement": "IC90", "value": "> 100", "unit": "µM"}]}, {"smiles": "O=C(CSc1nc2cc(Cl)ccc2o1)NCCc1ccccc1", "values": [{"measurement": "IC50", "value": "< 0.391", "unit": "µM"}, {"measurement": "IC90", "value": 1.09, "unit": "µM"}]}, {"smiles": "CC/C(=C\\C(=O)c1cccnc1)Nc1ccc(C)c(C)c1", "values": [{"measurement": "CC50", "value": "> 40", "unit": "µM"}]}, {"smiles": "COC(=O)CN1C(c2cccc(Cl)c2)=Nc2ccc(Cl)cc2C1c1ccccc1", "note": "(stereo unspecified)", "values": [{"measurement": "IC50", "value": 11.9, "unit": "µM"}, {"measurement": "IC90", "value": 13.6, "unit": "µM"}]}, {"smiles": "CCc1nc2sc3ccccc3c(=O)c2c(=O)n1Cc1ccc(OC)cc1", "values": [{"measurement": "IC50", "value": 6.25, "unit": "µM"}, {"measurement": "IC90", "value": 8.28, "unit": "µM"}, {"measurement": "CC50", "value": "> 40", "unit": "µM"}]}, {"smiles": "CCN(CC)c1ccc(N=Cc2c(C)[nH]c3ccccc23)cc1", "values": [{"measurement": "IC50", "value": 22.1, "unit": "µM"}, {"measurement": "IC90", "value": 35.1, "unit": "µM"}, {"measurement": "CC50", "value": "> 40", "unit": "µM"}]}, {"smiles": "Nc1c(C(=O)NCc2ccccc2)c2nc3ccccc3nc2n1CCCN1CCOCC1", "values": [{"measurement": "IC50", "value": 12.7, "unit": "µM"}, {"measurement": "IC90", "value": 17.1, "unit": "µM"}, {"measurement": "CC50", "value": "> 40", "unit": "µM"}]}, {"smiles": "CC(=O)Nc1ccc(Nc2cc(C(C)C)nc3c(-c4ccccc4)c(C)nn23)cc1", "values": [{"measurement": "IC50", "value": 5.08, "unit": "µM"}, {"measurement": "IC90", "value": 9, "unit": "µM"}, {"measurement": "CC50", "value": "> 40", "unit": "µM"}]}, {"smiles": "CC(C)CCN1C(=O)c2ccc(-c3nc4ccccc4c(=O)o3)cc2C1=O", "values": [{"measurement": "IC50", "value": 5.26, "unit": "µM"}, {"measurement": "IC90", "value": "> 100", "unit": "µM"}]}, {"smiles": "CCOc1ccc(/C=C/C(=O)c2ccccc2)cc1OC", "values": [{"measurement": "IC90", "value": "> 100", "unit": "µM"}, {"measurement": "CC50", "value": "> 40", "unit": "µM"}]}, {"smiles": "Cc1ccc2nc(Cl)c(/C=C/C(=O)c3ccco3)cc2c1", "values": [{"measurement": "IC50", "value": 2.26, "unit": "µM"}, {"measurement": "IC90", "value": 4.01, "unit": "µM"}, {"measurement": "CC50", "value": 25, "unit": "µM"}]}, {"smiles": "C=C(C)C1Cc2c(C)nn(-c3nc(C)cc(C)n3)c2C1", "note": "(stereo unspecified)", "values": [{"measurement": "IC50", "value": 10.1, "unit": "µM"}, {"measurement": "IC90", "value": "> 100", "unit": "µM"}, {"measurement": "CC50", "value": "> 40", "unit": "µM"}]}, {"smiles": "CCOC(=O)c1ccc(NC(=O)Oc2cc(C)c(Cl)cc2C(C)C)cc1", "values": [{"measurement": "IC50", "value": 11.4, "unit": "µM"}, {"measurement": "IC90", "value": "> 100", "unit": "µM"}]}, {"smiles": "COC(=O)c1cc(Sc2cccc(Cl)c2Cl)ccn1", "values": [{"measurement": "IC50", "value": 11.4, "unit": "µM"}, {"measurement": "IC90", "value": 17, "unit": "µM"}]}, {"smiles": "CN(C)c1ccc(N=Nc2ccccc2C(=O)OCC(=O)NCC2CCCCC2)cc1", "values": [{"measurement": "IC50", "value": 7.74, "unit": "µM"}, {"measurement": "IC90", "value": 17.2, "unit": "µM"}]}, {"smiles": "CC(C)OC(=O)c1ccc(N)cc1", "values": [{"measurement": "IC50", "value": 30.1, "unit": "µM"}, {"measurement": "IC90", "value": "> 100", "unit": "µM"}]}, {"smiles": "COc1ccc(/C=C/C(=O)Oc2ccc(C)c(C)c2)cc1OC", "values": [{"measurement": "IC50", "value": 9.43, "unit": "µM"}, {"measurement": "IC90", "value": "> 100", "unit": "µM"}]}, {"smiles": "CN1CCN(c2ccc(C(=O)c3cn(-c4ccc(F)c(Cl)c4)nn3)cc2)CC1", "values": [{"measurement": "IC50", "value": 3.43, "unit": "µM"}, {"measurement": "IC90", "value": "> 100", "unit": "µM"}, {"measurement": "CC50", "value": 9.78, "unit": "µM"}]}]}
